Laboratory results reported in US6358713B1, “In vitro ribosome evolution” (Johns Hopkins University, priority 1999, dated 2002).

How the values were obtained:
[1] = test system: 23S rRNA (2555 loop); experiment: Antibiotic inhibition of crosslinking by s^4TCPm to 23S rRNA; type: binding, E. coli; conditions: antibiotics 0.1 mM (neomycin 0.01 mM, puromycin 1 mM); limiting [32P]-s^4TCPm
Protocol: FIGS. 5A and 5B are graphs that indicate antibiotic inhibition of crosslinking by s^4TCPm to 23S rRNA (5A) and of peptidyl transferase activity of crosslinked complex (s^4TCPm-50S) (5B). Values were normalized to 1.0 for reactions where no antibiotics were included.
(§1) Kinetic analysis of crosslinked ribosomal complex: Crosslinked 50S subunits were separated from 30S subunits, gene 32 mRNA, and deacylated tRNA^Phe on 5%-20% sucrose gradients in 10 mM Tris-Cl, pH 7.5, 30 mM NH4Cl, and 1 mM MgCl2, and spun in an SW41 rotor at 19,000 rpm for 16 hours. Excess sucrose was removed and the buffer exchanged to 20 mM Tris, pH 7.5, 100 mM NH4Cl, and 5 mM MgCl2 using Centricon 100 tubes spun at 2600 rpm in an SS34 rotor. Peptidyl transferase assays were done as follows: crosslinked 50S subunit complexes (0.5 μM) were incubated in standard fragment reaction conditions (50 mM Tris, pH 8.3, 0.4 M potassium acetate (KOAc), 60 mM MgCl2, and 33% MeOH) with CACCA-(N-Ac-Phe) (2 μM). Aliquots were removed from the reaction at the indicated times, rRNAs phenol extracted, digested with RNase T1, and the fragments resolved on 24% polyacrylamide/6 M urea gels. […] When incubated with ribosomes at these concentrations, these antibiotics protect specific positions in 16S and 23S rRNA from chemical modification. Antibiotic inhibition of crosslinking was performed using limiting [^32P]-s^4TCPm and a single time point (2 minutes) of exposure to various lengths of time (0, 5, 10, 20, or 40 minutes) to long-wave length (366 nm) UV light (in the linear range of the reaction) under standard conditions. Ribosomal RNAs were phenol extracted and analyzed on a 3.8% polyacrylamide—7 M urea gel. Antibiotic inhibition of PT activity was performed with the fragment P-site substrate, CACCA-(N-Ac-Phe), supplied at a concentration of 0.3 μM; a single linear time point of 4 minutes was used for analysis.
While sparsomycin is known to stabilize P-site substrate binding, it also competes effectively for binding with puromycin in the A site. As sparsomycin is ineffective in the context of a covalently tethered puromycin substrate, but active in preventing the crosslinking of s^4TCPm, it seems likely that its mode of inhibition results primarily from its effect on A-site interactions. Puromycin had no effect on the peptidyl transferase activity of the crosslinked complex, consistent with the high effective concentration of the s^4TCPm substrate covalently bound in the A site. These effects of the various antibiotics on the activity of the 50S subunit-s^4TCPm complex provide further evidence that the synthetic substrate, s^4TCPm, is crosslinked to its physiologically correct binding site.

[2] = test system: crosslinked 50S subunit-s^4TCPm complex; experiment: Antibiotic inhibition of peptidyl transferase activity of the crosslinked complex (s^4TCPm-50S); type: biochemical, E. coli; conditions: antibiotics 0.1 mM (neomycin 0.01 mM, puromycin 1 mM); CACCA-(N-Ac-Phe) 0.3 μM, 4 minutes
Protocol: Kinetic analysis of crosslinked ribosomal complex: Crosslinked 50S subunits were separated from 30S subunits, gene 32 mRNA, and deacylated tRNA^Phe on 5%-20% sucrose gradients in 10 mM Tris-Cl, pH 7.5, 30 mM NH4Cl, and 1 mM MgCl2, and spun in an SW41 rotor at 19,000 rpm for 16 hours. Excess sucrose was removed and the buffer exchanged to 20 mM Tris, pH 7.5, 100 mM NH4Cl, and 5 mM MgCl2 using Centricon 100 tubes spun at 2600 rpm in an SS34 rotor. Peptidyl transferase assays were done as follows: crosslinked 50S subunit complexes (0.5 μM) were incubated in standard fragment reaction conditions (50 mM Tris, pH 8.3, 0.4 M potassium acetate (KOAc), 60 mM MgCl2, and 33% MeOH) with CACCA-(N-Ac-Phe) (2 μM). Aliquots were removed from the reaction at the indicated times, rRNAs phenol extracted, digested with RNase T1, and the fragments resolved on 24% polyacrylamide/6 M urea gels. […] Antibiotic inhibition of PT activity was performed with the fragment P-site substrate, CACCA-(N-Ac-Phe), supplied at a concentration of 0.3 μM; a single linear time point of 4 minutes was used for analysis.

[3] = test system: peptidyl transferase A site of the 50S subunit; experiment: Kinetic characterization of A-site substrates in the peptidyl transferase fragment reaction; type: biochemical; conditions: fragment reaction conditions, P-site substrate N-Ac-Met-ACCACC
Protocol: Synthesis of 4-thio-dT-p-C-p-puromycin 5′-Dimethoxytrityl-Nα-trifluoroacetyl-puromycin was attached to alkylamine-derivatized controlled pore glass via a 2′-succinate linkage by standard methods. See, Atkinson and Smith, Solid Phase Synthesis of Oligodeoxyribonucleotides by the Phosphate-triester Method, in Oligonucleotide Synthesis: A Practical Approach, Oxford: IRL Press, pp. 35-81, 1985. 4-Thio-dT-p-C-p-Puromycin (s^4TCPm) was prepared by standard phosphoramidite chemistry using the solid-phase version of puromycin, and rC and 4-thio-dT phosphoramidites (Glen Research Corporation, Sterling, Va.). Deprotection was performed by treatment with 3:1 NH4OH:MeOH/50 mM NaSH overnight at 55° C. Subsequently, 40 equivalents of 1 M tetrabutylammonium fluoride (TBAF) in tetrahydrofuran (THF) were added to the dried product and incubated overnight at room temperature. Finally, 20 mM triethylamine-acetate (pH. 7.0) was added to the reaction mixture, loaded directly on a C18 HPLC column, and eluted with increasing concentrations of acetonitrile (CH3CN). Multiple peaks were collected and the purity of the products was analyzed on a 20% polyacrylamide/7M urea gel following 5′-[^32P]-end-labelling using polynucleotide kinase. Although two peaks appeared to be relatively pure by this analysis, only the slowest migrating peak on the HPLC had any crosslinking ability. Kinetic characterization of s^4TCPm was performed using the tRNA fragment N-Ac-Met-ACCACC, as a P-site substrate, using fragment reaction conditions, and paper electrophoresis analysis of the resulting product, s^4TCPm-N-Ac-Met, as described by Green and Noller, RNA, 1996, 2:1011-1021. This analysis was complicated by the apparent affinity of the compound for both the A and P sites at high concentrations. The P-site affinity may be attributable to wobble pairing between 4-thio-dT (which mimics C74 of tRNA) and G2252 of 23S rRNA. See, Samaha et al., Nature 1995, 377:309-314. […]

[4] = test system: 23S rRNA of E. coli tight-couple 70S ribosomes; experiment: UV crosslinking of s^4TCPm to ribosomes; type: binding
Protocol: (§2) Crosslinking of ribosomes by s^4TCPm: Tight-couple E. coli 70S ribosomes (2 μM) were incubated with 1.2 equivalents (2.4 μM) of gene 32 mRNA and of deacylated CF23 tRNA^Phe in 20 mM Tris, pH 7.5, 30 mM MgCl2, 50 mM NH4Cl, 6 mM 2-mercaptoethanol, and 10% MeOH. Saturating s^4TCPm (20 μM) (or [^32P]-s^4TCPm) was then added and the mixture was incubated at 37° C. for 10 minutes. Crosslinking of s^4TCPm to B. stearothermophilus 70S ribosomes was performed under similar conditions except with 30 mM Tris pH 7.5, 10 mM MgCl2, and 330 mM KCl. Complexes were exposed for varying lengths of time to a hand-held UV light source (UVL-56, Blak-Ray Lamp, UVP, Inc.—366 nm) at a distance of 3 cm. […] Analysis of the amount of substrate crosslinked to the r-proteins was determined as described by Breitmeyer and Noller, J. Mol. Biol., 1976, 101:297-306.
Crosslinking to the peptidyl transferase A site: To target binding of the crosslinking reagent specifically to the peptidyl transferase A site, the P site of E. coli tight-couple 70S ribosomes, programed with a shortened version of bacteriophage T4 gene 32 mRNA, was filled with deacylated tRNA^Phe, followed by binding of radioactively labeled [^32P]-s^4TCPm (FIG. 3B). […] Total RNA was prepared from the UV-irradiated ribosomal complexes by phenol extraction and analyzed on a 3.8% denaturing polyacrylamide gel. […]

[5] = test system: B. stearothermophilus 70S ribosomes 23S rRNA; experiment: UV crosslinking of s^4TCPm to B. stearothermophilus ribosomes; type: binding; conditions: compared with E. coli ribosomes
Protocol: as §2, with “cm. Intact rRNAs were phenol extracted, and resolved on 3.8% polyacrylamide/7 M urea gels.” for “cm.”
The position of the crosslinked A-site substrate was first localized with a series of RNase H digestions to the region between positions 2538 and 2593 of 23S rRNA. Assignment of the site of crosslinking to position G2553 was achieved using primer extension analysis. Because of the impaired ability of reverse transcriptase to read modified bases on the rRNA template, a major cDNA product was obtained terminating one nucleotide 3′ to the modified base. […]

[6] = test system: E. coli 50S subunit; experiment: Peptidyl transferase reactivity of the crosslinked complex; type: biochemical; conditions: CACCA-(N-Ac-Phe), fragment reaction conditions
Protocol: as §1, with “Antibiotic inhibition of crosslinking was performed using limiting [^32P]-s^4TCPm and a single time point (2 minutes) of exposure to various lengths of time (0, 5, 10, 20, or 40 minutes) to long-wave length (366 nm) UV light (in the linear range of the reaction) under standard conditions.” left out, “Antibiotic inhibition of PT activity was performed with the fragment P-site substrate, CACCA-(N-Ac-Phe), supplied at a concentration of 0.3 μM; a single linear time point of 4 minutes was used for analysis.” left out

[7] = test system: B. stearothermophilus 50S; experiment: Peptidyl transferase reactivity of the crosslinked B. stearothermophilus complex; type: biochemical; conditions: minimal P-site substrates
Protocol: as §1, with “Antibiotic inhibition of crosslinking was performed using limiting [^32P]-s^4TCPm and a single time point (2 minutes) of exposure to various lengths of time (0, 5, 10, 20, or 40 minutes) to long-wave length (366 nm) UV light (in the linear range of the reaction) under standard conditions.” left out, “Antibiotic inhibition of PT activity was performed with the fragment P-site substrate, CACCA-(N-Ac-Phe), supplied at a concentration of 0.3 μM; a single linear time point of 4 minutes was used for analysis.” left out

Compound | inhibition of crosslinking of s^4TCPm to the 2555 loop of 23S rRNA [1] | inhibition of peptidyl transferase reactivity of the crosslinked complex [2] | Km [3] | other results
O=C(N[C@H](CO)[C@H](O)c1ccc([N+](=O)[O-])cc1)C(Cl)Cl [chloramphenicol] | specifically inhibited | effectively inhibited | – | –
COc1ccc(CC(N)C(=O)NC2C(COP(=O)(O)OC3C(CO)OC(n4ccc(N)nc4=O)C3O)OC(n3cnc4c(N(C)C)ncnc43)C2O)cc1 (stereo not shown) [CPm, C-p-Puromycin] | – | – | ~10 µM | –
COc1ccc(C[C@H](N)C(=O)N[C@H]2[C@@H](O)[C@H](n3cnc4c(N(C)C)ncnc43)O[C@@H]2CO)cc1 [puromycin] | specifically inhibited | no effect | ~400 µM | –
4-thio-dT-p-C-p-Puromycin [s^4TCPm] | – | – | ~10 µM | crosslinking to ribosomal proteins [4]: absence of significant crosslinking; UV irradiation time at which the crosslinking reaction was complete ([4]; 366 nm UV): 10 min; crosslinking efficiency with B. stearothermophilus ribosomes [5]: similarly efficient; crosslinked population reacted with P-site substrate ([6]; 2 minutes): approximately 50%; crosslinked population reacted with P-site substrate ([6]; 12 minutes): 85%; peptidyl transferase kinetics slower than E. coli complex [7]: ca. 10 fold
CSC[S@+]([O-])C[C@H](CO)NC(=O)/C=C/c1c(C)[nH]c(=O)[nH]c1=O [sparsomycin] | strongly inhibited | no inhibitory effect | – | –
neomycin | no effect | – | – | –
CC[C@H]1OC(=O)[C@H](C)[C@@H](O[C@H]2C[C@@](C)(OC)[C@@H](O)[C@H](C)O2)[C@H](C)[C@@H](O[C@@H]2O[C@H](C)C[C@H](N(C)C)[C@H]2O)[C@](C)(O)C[C@@H](C)C(=O)[C@H](C)[C@@H](O)[C@]1(C)O [erythromycin] | no effect | – | – | –
CO[C@@H]1[C@@H](O[C@@H]2O[C@H](C)[C@@H](O[C@H]3C[C@@](C)(O)[C@@H](OC(=O)CC(C)C)[C@H](C)O3)[C@H](N(C)C)[C@H]2O)[C@@H](CC=O)C[C@@H](C)C(=O)/C=C/[C@@H]2O[C@@H]2C[C@@H](C)OC(=O)C[C@H]1OC(C)=O [carbomycin] | specifically inhibited | effectively inhibited | – | –
